Measured values as given in US8163479B2, “Specific substrates for O6-alkylguanine-DNA alkyltransferase” (Ecole Polytechnique Federale de Lausanne, priority 2004, dated 2012).
Where a chain is given by its changes, count along the chain named.

Assays:
AGTM or AGT21 = experiment: One-pot labeling and separation with streptavidin magnetic beads; type: biochemical, human; settings: 5 μM protein, 10 μM substrate, 1 hour; fluorescence 490/535 nm in supernatant
Protocol: In other experiments, purified AGTM or AGT21 (Example 47) in a protein concentration of 5 μM are incubated with 10 μM N-[4-(2-amino-8-(3-(N-(+)-biotinyl-6-aminocaproyl)-aminopropyl)-9H-purin-6-yloxymethyl)-benzyl]-fluoresceine-5(6)-carboxamide (52, Example 34) in 50 μl buffer containing 100 mM NaCl, 50 mM Tris, pH 8.0, 0.1% Tween, 1 mM DTT at room temperature. After 1 hour, streptavidin coated magnetic beads (Magnabind Streptavidin, Pierce) with a capacity to bind at least 1 nmol biotin are added and the incubation time and magnetic separation from the supernatant containing fluorescein-labeled protein are done according to manufacturer's instructions for use. The amount of protein in solution before and after the treatment with magnetic beads is determined by Bradford assay. The loss of protein is less than 30%. The labeling efficiency is determined by measuring the fluorescence intensity using a Victor2 microplate reader (Perkin Elmer) at 490 nm excitation and 535 nm emission in the supernatant after removal of the unreacted substrate and released product by binding to the beads and magnetic separation. The labeling efficiency is at least 20%.

AGTM = target: T1, AGTM (Homo sapiens, UniProt P16455, A127T/C150N/C62A/G131K/G132T/K125A/M134L/N157G/Q115S/Q116H/R128A/R135S/S151I/S152N/S159E); experiment: Labeling with substrate pre-immobilized on streptavidin magnetic beads; type: biochemical; settings: AGTM 50 μM, 20 h
T1 construct: a truncation after codon 182 into the mutant AGT gene
T1 sequence (P16455 1-182 C62A/Q115S/Q116H/K125A/A127T/R128A/G131K/G132T/M134L/R135S/C150N/S151I/S152N/N157G/S159E): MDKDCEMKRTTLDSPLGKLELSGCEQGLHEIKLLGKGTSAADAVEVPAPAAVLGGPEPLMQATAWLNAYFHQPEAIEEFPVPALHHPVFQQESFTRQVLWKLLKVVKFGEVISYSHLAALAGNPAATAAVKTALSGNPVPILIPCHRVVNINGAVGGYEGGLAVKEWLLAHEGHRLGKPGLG
Protocol: In a further experiment, wherein the substrate is pre-immobilized, streptavidin coated magnetic beads (Magnabind Streptavidin, Pierce) with a capacity to bind […] biotin per ml are incubated with twofold excess of compound 52 (as above) in buffer containing 100 mM NaCl, 50 mM Tris, pH 8.0, 0.1% Tween at room temperature to immobilize the substrate to the beads. The incubation time and magnetic separation from the supernatant are done according to manufacturer's instructions for use. Unbound substrate is removed with buffer by 3 subsequent washing steps. AGTM at a protein concentration of 50 μM is incubated with these substrate-modified beads in 50 μl buffer containing 100 mM NaCl, 50 mM Tris, pH 8.0, 0.1% Tween, 1 mM DTT at room temperature. After 20 h, the beads are separated from the supernatant containing fluorescein-labeled protein. The amount of protein in solution before and after the treatment with magnetic beads is determined by Bradford assay.

AGTM (mutant AGT) = target: T2, AGTM (mutant AGT) (Homo sapiens, UniProt P16455, A127T/C150N/C62A/G131K/G132T/K125A/M134L/N157G/Q115S/Q116H/R128A/R135S/S151I/S152N/S159E); experiment: Reaction rate of AGT mutant with substrate, BGBT capture and Western blot; type: biochemical
T2 construct: a truncation after codon 182 into the mutant AGT gene; 6xHis
T2 sequence (P16455 1-182 C62A/Q115S/Q116H/K125A/A127T/R128A/G131K/G132T/M134L/R135S/C150N/S151I/S152N/N157G/S159E): T1 sequence (P16455 1-182 C62A/Q115S/Q116H/K125A/A127T/R128A/G131K/G132T/M134L/R135S/C150N/S151I/S152N/N157G/S159E)
Excerpt: Proteins are then denatured with SDS and heat. Samples are subjected to SDS-PAGE and Western blot analysis. The intensity of the corresponding bands is detected by chemiluminescence stain.
A second AGT mutant (“AGTM”) containing the mutations Cys62Ala, Gln115Ser, Gln116His, Lys125Ala, Ala127Thr, Arg128Ala, Gly131Lys, Gly132Thr, Met134Leu, Arg135Ser, Cys150Asn, Ser15111e, Ser152Asn, Asn157Gly, Ser159G1u, and truncation at 182 is derived from the mentioned above AGT mutant by subsequent introduction of further mutations and a truncation after codon 182 into the mutant AGT gene. […] The GST-fusion protein is expressed and purified as well.
AGTM (1 μM final concentration) is incubated with N^9-cyclopentyl-O^6-(4-bromothiophen-2-yl)-guanine (18, CPTG) (10 μM in 1% DMSO final concentration) in reaction buffer (50 mM HEPES, 1 mM DTT, […] BSA, pH 7.3) at 24° C. […] The reaction is quenched by addition of SDS-Laemmli buffer and heating for 2 min at 95° C. Samples are run on a 12% acrylamide gel and analysed by Western blotting.

Mutant AGT (AGTM) = target: T3, Mutant AGT (AGTM) (Homo sapiens, UniProt P16455, A127T/C150N/C62A/G131K/G132T/K125A/M134L/N157G/Q115S/Q116H/R128A/R135S/S151I/S152N/S159E); experiment: In vitro competition between CPTG and BGBT, separate incubation; type: biochemical; settings: CPTG 20 times higher than BGBT (0.5 μM), after 45 minutes
T3 construct: a truncation after codon 182 into the mutant AGT gene
T3 sequence (P16455 1-182 C62A/Q115S/Q116H/K125A/A127T/R128A/G131K/G132T/M134L/R135S/C150N/S151I/S152N/N157G/S159E): T1 sequence (P16455 1-182 C62A/Q115S/Q116H/K125A/A127T/R128A/G131K/G132T/M134L/R135S/C150N/S151I/S152N/N157G/S159E)
Protocol: (§1) The reaction is quenched by addition of 2×SDS buffer and placed 2 min at 95° C. Samples are run on a 12% acrylamide gel and analysed by Western blotting.

wild type hAGT = target: T4, wild type hAGT (Homo sapiens, UniProt P16455); experiment: as above; type: biochemical; settings: CPTG 20 times higher than BGBT (0.5 μM), after 45 minutes
T4 sequence (P16455 1-207): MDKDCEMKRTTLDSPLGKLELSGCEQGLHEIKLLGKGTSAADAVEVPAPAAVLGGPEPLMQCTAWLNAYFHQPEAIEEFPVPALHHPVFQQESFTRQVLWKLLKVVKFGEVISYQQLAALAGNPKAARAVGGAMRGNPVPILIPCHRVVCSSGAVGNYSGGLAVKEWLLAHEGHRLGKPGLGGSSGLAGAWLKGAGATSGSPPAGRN
Protocol: as §1

[1] = target: T5, AGTM-6×His fusion protein (Homo sapiens, UniProt P16455, A127T/C150N/C62A/G131K/G132T/K125A/M134L/N157G/Q115S/Q116H/R128A/R135S/S151I/S152N/S159E); experiment: In vitro competition CPTG/BGBT, both proteins in one solution; type: biochemical; settings: both substrates CPTG and BGBT 5 μM, 30 min
T5 construct: a truncation after codon 182 into the mutant AGT gene; 6xHis
T5 sequence (P16455 1-182 C62A/Q115S/Q116H/K125A/A127T/R128A/G131K/G132T/M134L/R135S/C150N/S151I/S152N/N157G/S159E): T1 sequence (P16455 1-182 C62A/Q115S/Q116H/K125A/A127T/R128A/G131K/G132T/M134L/R135S/C150N/S151I/S152N/N157G/S159E)
Protocol: (§2) Detection of the AGTM-BGBT complex with luminescent peroxidase substrate is as described for FIG. 2.
as §1
(§3) In comparing the reaction of AGTM and wild type hAGT, a high specificity of CPTG toward hAGT is observed. At the same concentration (both substrates 5 μM final concentration), 95% of wild type AGT has reacted with CPTG versus only 5% of AGTM.

[2] = target: T6, wild type hAGT-GST fusion protein (Homo sapiens, UniProt P16455); experiment: as above; type: biochemical; settings: both substrates CPTG and BGBT 5 μM, 30 min
T6 sequence (P16455 1-207): T4 sequence (P16455 1-207)
Protocol: as §2, §1, §3

[3] = target: T7, AGT (Gly160Trp)-NLS3 fusion protein in the nucleus of CHO cells (Homo sapiens, UniProt P16455, G160W); experiment: Intracellular competition of two AGT mutants with two substrates in CHO cells; type: cell-based; settings: 5 μM CPTG 10 min, then 5 μM BG-AcFL 20 min
T7 construct: expressed in transfected cells; host or cells: CHO cells, transient expression
T7 sequence (P16455 1-207 G160W): T4 sequence (P16455 1-207) with G160W
Excerpt: (§4) The mutant AGTM (Example 47) is amplified with the suitable primers and cloned between the NheI and BglII sites of the vector pEGFP-Nuc. The yeast β-galactosidase gene is likewise amplified and subcloned into this vector via BglII/BamHI to result in a vector with an AGT-β-Gal fusion gene. The wild type hAGT gene is amplified and cloned via NheI/BglII into pEGFP-Nuc to result in an AGT-NLS3 fusion gene coding for the mutation Gly160Trp.

[4] = target: T8, AGTM-β-galactosidase fusion protein in CHO cells (Homo sapiens, UniProt P16455, A127T/C150N/C62A/G131K/G132T/K125A/M134L/N157G/Q115S/Q116H/R128A/R135S/S151I/S152N/S159E); experiment: as above; type: cell-based; settings: 5 μM CPTG 10 min, then 5 μM BG-AcFL 20 min
T8 construct: a truncation after codon 182 into the mutant AGT gene; expressed in transfected cells; host or cells: CHO cells, transient expression
T8 sequence (P16455 1-182 C62A/Q115S/Q116H/K125A/A127T/R128A/G131K/G132T/M134L/R135S/C150N/S151I/S152N/N157G/S159E): T1 sequence (P16455 1-182 C62A/Q115S/Q116H/K125A/A127T/R128A/G131K/G132T/M134L/R135S/C150N/S151I/S152N/N157G/S159E)
Excerpt: as §4

| labeling efficiency (AGTM) | loss of protein (AGTM; Bradford assay) | activity ratio of the two substrates BGBT/CPTG (AGTM (mutant AGT); AGTM) | second order rate constant k2 (AGTM (mutant AGT); AGTM 1 μM, substrate 10 μM, 24° C., pH 7.3) [s⁻¹ M⁻¹] | mutant AGTM still active (Mutant AGT (AGTM)) [%] | wild type AGT quenched by CPTG (wild type hAGT) [%] | AGTM reacted with CPTG [1] [%] | wild type AGT reacted with CPTG [2] [%] | reaction with CPTG inside cells [3] | reaction with CPTG inside cells [4] | Substance | labeling efficiency (AGTM or AGT21) |
| --- | --- | --- | --- | --- | --- | --- | --- | --- | --- | --- | --- |
| at least 20% | less than 30% |  |  |  |  |  |  |  |  | N-[4-(2-Amino-8-(3-(N-(+)-biotinyl-6-aminocaproyl)-aminopropyl)-9H-purin-6-yloxymethyl)-benzyl]-fluoresceine-5(6)-carboxamide [compound 52] | at least 20% |
|  |  | at least 25 | 92.5 | 87 | 95 | 5 | 95 | efficiently reacts with CPTG | does not react with CPTG | N^9-Cyclopentyl-O^6-(4-bromothiophen-2-yl)-guanine [CPTG] |  |
